Assay results taken from the OligoGym collection.
HELM strings list units from the 5' end as sugar, base in round brackets, then linkage (d deoxyribose, r ribose, m 2'-O-methyl, p phosphodiester). Strings are as the collection lists them; they lack the last nucleoside at the 3' end of the tested compound. [moe] = 2'-O-(2-methoxyethyl) (MOE); [sp] = phosphorothioate linkage; [m5C] = 5-methylcytosine

Target: LRRK2
Experiment: mouse, dose not given
Conditions: ASO

Substance | 3 h FOB score
RNA1{[moe](T)[sp].[moe](T)p.[moe](G)[sp].[moe](G)[sp].[moe]([m5C])[sp].d(T)[sp].d(G)[sp].d(G)[sp].d(A)[sp].d(A)[sp].d(A)[sp].d(T)[sp].d(G)[sp].d(A)[sp].d(G)[sp].[moe](T)[sp].[moe](G)p.[moe]([m5C])[sp].[moe](A)}$$$$ (last 3' nucleoside missing) | 6 score 0-7
RNA1{[moe](A)[sp].[moe](G)[sp].[moe](T)[sp].[moe](T)[sp].[moe]([m5C])[sp].d([m5C])[sp].d(T)[sp].d(T)[sp].d([m5C])[sp].d(A)[sp].d(G)[sp].d(T)[sp].d([m5C])[sp].d(T)[sp].d([m5C])[sp].[moe](A)[sp].[moe](A)p.[moe](G)[sp].[moe](G)}$$$$ (last 3' nucleoside missing) | 7 score 0-7
RNA1{[moe](A)[sp].[moe](G)p.[moe](T)[sp].[moe](G)[sp].[moe]([m5C])[sp].d(A)[sp].d(T)[sp].d(G)[sp].d(G)[sp].d([m5C])[sp].d(A)[sp].d(T)[sp].d([m5C])[sp].d(A)[sp].d(A)[sp].[moe](A)[sp].[moe](A)p.[moe](A)[sp].[moe](T)}$$$$ (last 3' nucleoside missing) | 2 score 0-7
RNA1{[moe](A)[sp].[moe](A)p.[moe](T)[sp].[moe](G)[sp].[moe](A)[sp].d(G)[sp].d(T)[sp].d(G)[sp].d([m5C])[sp].d(A)[sp].d(T)[sp].d(G)[sp].d(G)[sp].d([m5C])[sp].d(A)[sp].[moe](T)[sp].[moe]([m5C])p.[moe](A)[sp].[moe](A)}$$$$ (last 3' nucleoside missing) | 3 score 0-7
RNA1{[moe](T)[sp].[moe]([m5C])p.[moe](A)p.[moe](G)p.[moe](T)[sp].d(T)[sp].d([m5C])[sp].d([m5C])[sp].d(T)[sp].d(T)[sp].d([m5C])[sp].d(A)[sp].d(G)[sp].d(T)[sp].d([m5C])[sp].[moe](T)p.[moe]([m5C])p.[moe](A)[sp].[moe](A)}$$$$ (last 3' nucleoside missing) | 4 score 0-7
RNA1{[moe](A)[sp].[moe](A)p.[moe](T)p.[moe](G)p.[moe]([m5C])[sp].d(T)[sp].d(T)[sp].d(T)[sp].d([m5C])[sp].d(A)[sp].d(T)[sp].d(A)[sp].d(G)[sp].d([m5C])[sp].d(T)[sp].[moe](T)p.[moe]([m5C])p.[moe]([m5C])[sp].[moe](A)}$$$$ (last 3' nucleoside missing) | 1 score 0-7
RNA1{[moe](A)[sp].[moe](G)p.[moe](G)p.[moe]([m5C])p.[moe](A)[sp].d(T)[sp].d(T)[sp].d(T)[sp].d([m5C])[sp].d(A)[sp].d(T)[sp].d(A)[sp].d(T)[sp].d(A)[sp].d(G)[sp].[moe](T)p.[moe]([m5C])p.[moe](G)[sp].[moe](G)}$$$$ (last 3' nucleoside missing) | 4 score 0-7
RNA1{[moe](G)[sp].[moe]([m5C])p.[moe]([m5C])[sp].[moe](A)[sp].[moe]([m5C])[sp].d(T)[sp].d(T)[sp].d(T)[sp].d([m5C])[sp].d(A)[sp].d(G)[sp].d([m5C])[sp].d([m5C])[sp].d(A)[sp].d([m5C])[sp].[moe](T)[sp].[moe](T)p.[moe]([m5C])[sp].[moe](A)}$$$$ (last 3' nucleoside missing) | 7 score 0-7
RNA1{[moe]([m5C])[sp].[moe]([m5C])p.[moe](A)p.[moe](T)p.[moe](A)[sp].d(T)[sp].d(T)[sp].d(T)[sp].d(A)[sp].d(G)[sp].d([m5C])[sp].d(T)[sp].d(T)[sp].d(A)[sp].d(T)[sp].[moe](G)p.[moe](A)p.[moe](T)[sp].[moe](G)}$$$$ (last 3' nucleoside missing) | 7 score 0-7
RNA1{[moe](A)[sp].[moe](G)p.[moe](T)p.[moe](T)p.[moe](T)[sp].d([m5C])[sp].d(A)[sp].d(T)[sp].d(T)[sp].d([m5C])[sp].d(G)[sp].d(G)[sp].d(T)[sp].d(T)[sp].d(A)[sp].[moe](T)p.[moe](A)p.[moe](A)[sp].[moe](G)}$$$$ (last 3' nucleoside missing) | 7 score 0-7
RNA1{[moe](G)[sp].[moe](G)p.[moe](A)p.[moe]([m5C])p.[moe](T)[sp].d(T)[sp].d([m5C])[sp].d([m5C])[sp].d(A)[sp].d([m5C])[sp].d(A)[sp].d(T)[sp].d(T)[sp].d(A)[sp].d(T)[sp].[moe](T)p.[moe](G)p.[moe]([m5C])[sp].[moe](A)}$$$$ (last 3' nucleoside missing) | 0 score 0-7
RNA1{[moe]([m5C])[sp].[moe](T)p.[moe](T)[sp].[moe](T)[sp].[moe]([m5C])[sp].d(A)[sp].d(T)[sp].d(A)[sp].d(G)[sp].d([m5C])[sp].d(T)[sp].d(T)[sp].d([m5C])[sp].d([m5C])[sp].d(A)[sp].[moe]([m5C])[sp].[moe]([m5C])p.[moe](A)[sp].[moe]([m5C])}$$$$ (last 3' nucleoside missing) | 3 score 0-7
RNA1{[moe](A)[sp].[moe](G)p.[moe](T)[sp].[moe](T)[sp].[moe]([m5C])[sp].d([m5C])[sp].d(T)[sp].d(T)[sp].d([m5C])[sp].d(A)[sp].d(G)[sp].d(T)[sp].d([m5C])[sp].d(T)[sp].d([m5C])[sp].[moe](A)p.[moe](A)p.[moe](G)[sp].[moe](G)}$$$$ (last 3' nucleoside missing) | 7 score 0-7
RNA1{[moe](A)[sp].[moe](G)p.[moe](T)p.[moe](G)p.[moe]([m5C])[sp].d(A)[sp].d(T)[sp].d(G)[sp].d(G)[sp].d([m5C])[sp].d(A)[sp].d(T)[sp].d([m5C])[sp].d(A)[sp].d(A)[sp].[moe](A)p.[moe](A)p.[moe](A)[sp].[moe](T)}$$$$ (last 3' nucleoside missing) | 1 score 0-7
RNA1{[moe](T)[sp].[moe](G)p.[moe]([m5C])p.[moe](T)p.[moe](G)[sp].d([m5C])[sp].d(T)[sp].d([m5C])[sp].d(A)[sp].d(T)[sp].d(A)[sp].d(T)[sp].d([m5C])[sp].d(T)[sp].d(A)[sp].[moe](A)p.[moe](A)p.[moe](G)[sp].[moe](A)}$$$$ (last 3' nucleoside missing) | 0 score 0-7
RNA1{[moe]([m5C])[sp].[moe](A)p.[moe](A)[sp].[moe](G)[sp].[moe](T)[sp].d([m5C])[sp].d([m5C])[sp].d(A)[sp].d(A)[sp].d(A)[sp].d(T)[sp].d(G)[sp].d(T)[sp].d(G)[sp].d(T)[sp].[moe]([m5C])[sp].[moe](A)p.[moe](A)[sp].[moe](A)}$$$$ (last 3' nucleoside missing) | 7 score 0-7
RNA1{[moe](T)[sp].[moe](T)p.[moe]([m5C])p.[moe](A)p.[moe](G)[sp].d(T)[sp].d(T)[sp].d([m5C])[sp].d([m5C])[sp].d(T)[sp].d(T)[sp].d([m5C])[sp].d(A)[sp].d(G)[sp].d(T)[sp].[moe]([m5C])p.[moe](T)p.[moe]([m5C])[sp].[moe](A)}$$$$ (last 3' nucleoside missing) | 4 score 0-7
RNA1{[moe](T)[sp].[moe](T)p.[moe]([m5C])[sp].[moe](A)[sp].[moe](T)[sp].d(A)[sp].d(G)[sp].d([m5C])[sp].d(T)[sp].d(T)[sp].d([m5C])[sp].d([m5C])[sp].d(A)[sp].d([m5C])[sp].d([m5C])[sp].[moe](A)[sp].[moe]([m5C])p.[moe](A)[sp].[moe](A)}$$$$ (last 3' nucleoside missing) | 5 score 0-7
RNA1{[moe]([m5C])[sp].[moe]([m5C])p.[moe](A)p.[moe]([m5C])p.[moe](A)[sp].d(A)[sp].d(A)[sp].d([m5C])[sp].d(T)[sp].d([m5C])[sp].d(A)[sp].d(T)[sp].d(G)[sp].d(G)[sp].d(A)[sp].[moe]([m5C])p.[moe](T)p.[moe](T)[sp].[moe]([m5C])}$$$$ (last 3' nucleoside missing) | 6 score 0-7
RNA1{[moe](G)[sp].[moe](T)p.[moe]([m5C])p.[moe](A)p.[moe](A)[sp].d(A)[sp].d([m5C])[sp].d(T)[sp].d([m5C])[sp].d(T)[sp].d(T)[sp].d([m5C])[sp].d(A)[sp].d(G)[sp].d(A)[sp].[moe](G)p.[moe](T)p.[moe](T)[sp].[moe](T)}$$$$ (last 3' nucleoside missing) | 0 score 0-7
RNA1{[moe]([m5C])[sp].[moe]([m5C])p.[moe](T)[sp].[moe](G)[sp].[moe](A)[sp].d([m5C])[sp].d(A)[sp].d(T)[sp].d(T)[sp].d(G)[sp].d([m5C])[sp].d([m5C])[sp].d(A)[sp].d([m5C])[sp].d(T)[sp].[moe]([m5C])[sp].[moe](A)p.[moe](T)[sp].[moe](G)}$$$$ (last 3' nucleoside missing) | 4 score 0-7
RNA1{[moe](A)[sp].[moe](G)p.[moe]([m5C])p.[moe](A)p.[moe](A)[sp].d(T)[sp].d([m5C])[sp].d(A)[sp].d(T)[sp].d(T)[sp].d(G)[sp].d(G)[sp].d(T)[sp].d(A)[sp].d(G)[sp].[moe]([m5C])p.[moe](A)p.[moe](T)[sp].[moe](A)}$$$$ (last 3' nucleoside missing) | 5 score 0-7
RNA1{[moe]([m5C])[sp].[moe](G)p.[moe]([m5C])[sp].[moe](A)[sp].[moe]([m5C])[sp].d(T)[sp].d(T)[sp].d(A)[sp].d(A)[sp].d([m5C])[sp].d(A)[sp].d(A)[sp].d(T)[sp].d(A)[sp].d(T)[sp].[moe]([m5C])[sp].[moe](A)p.[moe](T)[sp].[moe](A)}$$$$ (last 3' nucleoside missing) | 1 score 0-7
RNA1{[moe](A)[sp].[moe](T)p.[moe](T)[sp].[moe]([m5C])[sp].[moe](G)[sp].d(G)[sp].d(T)[sp].d(T)[sp].d(A)[sp].d(T)[sp].d(A)[sp].d(A)[sp].d(G)[sp].d(G)[sp].d([m5C])[sp].[moe](A)[sp].[moe]([m5C])p.[moe](A)[sp].[moe](G)}$$$$ (last 3' nucleoside missing) | 5 score 0-7
RNA1{[moe](G)[sp].[moe](G)p.[moe](A)p.[moe](G)p.[moe](A)[sp].d(T)[sp].d(T)[sp].d(A)[sp].d(T)[sp].d(T)[sp].d(T)[sp].d(A)[sp].d(G)[sp].d(T)[sp].d(G)[sp].[moe]([m5C])p.[moe]([m5C])p.[moe]([m5C])[sp].[moe](A)}$$$$ (last 3' nucleoside missing) | 6 score 0-7
